Assays:
[1] = test system: Kras^+/LSLG12V; Trp53^L/L lung tumors; assay: Mouse lung tumor model, tumor volume by CT scans; format: in vivo
Procedure: To test the potential compensatory relationship between CDK2 and CDK4/6 in vivo, an established mouse lung tumor model driven by KRAS^G12V and TRP53 mutations was used. Kras^+/LSLG12V, Trp53^L/L mice intra-nasally infected with adenoviral particles encoding Cre recombinase developed lung tumors with a latency of 5 months. Once tumor development was detected by CT scans, animals were treated with either vehicle or palbociclib (70 mg/kg QD) for 28 days and tumor volumes were subsequently measured by CT scans at the end of the treatment period.
Mice: Kras^+/LSLG12V Trp53^L/L and Cdk2^−/− mice have been previously described (Guerra et al., 2003; Jonkers et al., 2001; Ortega et al., 2003). Compound mice using the following transgenes: Kras^+/LSLG12V, (Guerra et al., 2003); Trp53^L/L (Lee et al., 2012), and Cdk2^−/− (Ortega et al., 2003) were generated for this study. All animal experiments were approved by the Ethical Committees of the Spanish National Cancer Research Centre (CNIO), the Carlos III Health Institute and the Autonomous Community of Madrid (PROEX 270/14) and were performed in accordance with the guidelines stated in the International Guiding Principles for Biomedical Research Involving Animals, developed by the Council for International Organizations of Medical Sciences (CIOMS). Mice were housed in specific-pathogen-free conditions at CNIO's Animal Facility (AAALAC, JRS:dpR 001659). Female and male mice were used for the experiments. All mice were genotyped at the CNIO's Genomic Unit. […]
Micro CT imaging: Image studies were done by the Molecular Imaging Core Unit at the CNIO. […] Tumor volume was calculated as follows: (short axis x short axis x long axis/2).
Pharmacological treatment in mice: Kras^+/LSLG12V; Trp53^L/L; Cdk2^−/− and Kras^+/LSLG12V; Trp53^L/L; Cdk2^+/+ mice were infected with 10^6 pfu of Ad-Cre. Once tumors were detected by CT, mice harboring at least one tumor bigger than 3 mm^3 were enrolled in the different treatment groups. […] Drug efficacy was monitored by CT measurements.

[2] = test system: MCF10A, RPE-hTERT, MCF7 and OVCAR3 cells; assay: Cell-cycle progression, mitosis and proliferation by time-lapse imaging; format: cell-based, human
Excerpt: The DHB sensor is localized to the nucleus when it is not phosphorylated. Upon phosphorylation, the nuclear localization signal is masked, the nuclear export signal is unmasked, and the sensor steadily translocates to the cytoplasm in response to increasing CDK2 activity (FIG. 1A). Thus, kinase activity can be quantified by the ratio of the cytoplasmic to nuclear fluorescence intensity (C/N ratio) of the DHB sensor. […] Asynchronously cycling cells were first imaged for approximately 20 hr in the absence of drug to establish the cell-cycle phase of each cell; the movie was then paused to add drug, and then imaging was continued for another 1-2 days. Because the cells were cycling asynchronously, all cell-cycle phases with one drug treatment were sampled. This allowed the present inventors to computationally isolate traces for cells that received drug at any time since the completion of anaphase.
Cells were seeded at least 24 hr prior to imaging in phenol-red-free full-growth medium in glass-bottom 96-well plates (CellVis P96-1.5H-N) that were coated with collagen prior to seeding. The seeding density was chosen such that the cells would remain sub-confluent until the end of the imaging period. Cells were first imaged for 16-20 hr in full-growth media without drug. The movie was then briefly paused and the full-growth media was replaced with full-growth media containing drug at the desired concentration. The plate was then re-inserted into the microscope and aligned to its prior position and imaging was continued for an additional 24-48 hr. Images were acquired every 12 min (for MCF10A or RPE-hTERT) or every 20 min (for MCF7 or OVCAR3) on a Nikon Eclipse Ti or Ti2 microscope with a 10×0.45 NA objective in a humidified, 37° C. chamber at 5% CO2. Exposure times for all movies for all channels were kept under 500 ms per timepoint to minimize phototoxicity. Cell tracking was performed using published MATLAB scripts (Cappell et al., 2016), as described previously (Arora et al., 2017). The tracking code is available for download at https://github.com/scappell/Cell_tracking. Cell counts over time were obtained by counting the number of segmented nuclei in each frame of the movie.

[3] = test system: Rb, Nucleolin, Cdc6 and Nbs1 phosphorylation; assay: Immunofluorescence and western blotting of endogenous CDK2 substrates; format: cell-based, human; details: for Rb phosphorylation: 1 hr palbociclib treatment
Procedure: Cells were fixed for 15 minutes with freshly prepared 4% paraformaldehyde, washed twice with PBS, and incubated with a blocking buffer (3% BSA in PBS) for 1 hr at room temperature. Permeabilization was carried out using 0.2% Triton-X 100 for 15 min at 4° C. Primary antibody was diluted in blocking buffer and incubated with cells overnight at 4° C. followed by three washes with 1×PBS. Secondary antibodies conjugated to Alexa Fluor 488, Alexa Fluor 546 or Alexa Fluor 647 were incubated for 1 hr followed by three washes with 1×PBS. DNA was stained using Hoechst 33342 dye for 10 minutes at 1:10000 (ThermoFisher H3570). Images were acquired on a Nikon Eclipse Ti or Ti2 microscope with a 10×0.45 NA objective. DNA content was determined by taking the integrated intensity of each cell's Hoechst signal. Cells were delineated as 3-4N DNA content by plotting a histogram of DNA content and drawing a threshold and the end of the 2N peak.
Lysates were prepared using 1×LDS sample buffer (ThermoFisher NP007) using equal numbers of cells. Proteins were separated using NuPAGE precast polyacrylamide gels (ThermoFisher NP0301). Total protein was quantified using Azure Red Dye (Azure Biosystems AC2124) and was used to normalize the signal from antibodies of interest. Primary antibodies used are specified under the “Antibodies” section. HRP-conjugated or IR700 and IR800 labeled fluorescent secondary antibodies were used for visualization (Cell Signaling Technology 7074 and 7076).

[4] = PF3600, MCF10A, MCF7 and RPE-hTERT cells

Structure (SMILES)	tumor volumes ([1]; PF3600 50 mg/kg BID for 4 weeks, Trp53^L/L mice)	cell proliferation and mitoses ([2]; 25 nM PF3600, OVCAR3 cells, remainder of the imaging period)	mitosis ([2]; 100 nM PF3600, MCF7)	cell-cycle progression and mitosis after PF3600 [2, 4]	intermitotic times [2, 4]	Rb and Nucleolin phosphorylation by immunofluorescence ([3]; 100 nM PF3600, MCF10A cells with 3-4N DNA content)	tumor size ([1]; palbociclib 70 mg/kg QD for 4 weeks, Trp53^L/L, Cdk2^−/− mice, p=0.037)	tumor volume fold change vs vehicle ([1]; palbociclib 70 mg/kg QD for 28 days, Trp53^L/L mice (Cdk2^+/+))	cell-cycle arrest ([2]; 1 μM palbociclib (after the upcoming mitosis) or 9 μM RO3306 (toward end of cell cycle), MCF10A)	sensitivity to palbociclib ([2]; MCF10A, MCF7 and RPE-hTERT cells)	sensitivity to palbociclib ([2]; OVCAR3 cells (amplification of cyclin E))	Rb phosphorylation ([3]; cells with 2N DNA content)	Rb phosphorylation ([3]; cells with 3-4N DNA content)
C[C@@]1(O)CCC[C@H]1n1c(=O)c(C(F)F)cc2cnc(NC3CCN(S(C)(=O)=O)CC3)nc21 [PF3600, 6-(difluoromethyl)-8-[(1R,2R)-2-hydroxy-2-methylcyclopentyl]-2-{[1-(methylsulfonyl)-piperidin-4-yl]amino}pyrido[2,3-d]pyrimidin-7(8H)-one]	significantly reduced tumor volumes	inhibited cell proliferation and prevented all further mitoses	blocked mitosis	cell-cycle progression continued, and cells eventually completed mitosis	longer intermitotic times	transient reduction in Rb and Nucleolin phosphorylation followed by a rebound							
CC(=O)c1c(C)c2cnc(Nc3ccc(N4CCNCC4)cn3)nc2n(C2CCCC2)c1=O [palbociclib]							significantly reduced tumor size	no significant reduction in tumor burden	CDK2^low G0 arrest	palbociclib-sensitive	resistant	dephosphorylation of Rb	no effect

Source: patent publication US20230158034A1, “CO-TREATMENT WITH CDK4/6 AND CDK2 INHIBITORS TO SUPPRESS TUMOR ADAPTATION TO CDK2 INHIBITORS” (Pfizer Inc., priority 2020, published 2023)
